Tested on: Lettuce seedlings
Assay: Comparison of automated (machine-vision spray) and hand plant thinning
Format: in vivo
Conditions: for Time (hand laborer with hand hoe to remove weeds and lettuce plants missed during thinning): after thinning operation; for Time (hand laborer with hand hoe to remove weeds and lettuce plants missed during thinning) / Plant Count (number of live plants per acre after thinning): letters = Duncan's groups (P = 0.05); for Plant Count (number of live plants per acre after thinning) / Plant Spacing (average of the measured distance to each live plant after thinning) / machine performance as compared to hand thinning: lettuce seedlings; for Plant Count (number of live plants per acre after thinning) / Plant Spacing (average of the measured distance to each live plant after thinning): product sprayed by automated thinning machine; for Plant Spacing (average of the measured distance to each live plant after thinning): letters = Duncan's new multiple range test groups (P = 0.05); for machine performance as compared to hand thinning: liquid product sprayed by automated thinning machine
Text: The machine vision system used in this example is as described in Example 1, except the spray nozzles were enclosed within a “hooded” box assembly to protect sprayed treatment from wind effects.
Lettuce seedlings were thinned either using the machine vision system with the indicated treatments. The far left column lists the seven treatments tested, including hand thinning (control) and six treatments used by the automated thinning machine. Of these six, the automated thinning machine was evaluated spraying five different liquid products (two acids, two fertilizers, and one herbicide) known to kill plants and one mechanical method (knife blade—“hula hoe” design). The second column is the cost of the material sprayed for the flow rates and travel speeds used. The third column is the average of the measured distance to each live plant after thinning. The fourth column is the number of live plants per acre after thinning. The fifth column is the time required by a hand laborer to walk through the field with a hand hoe and remove weeds in the row between crop plants and any lettuce plants missed during the thinning operation.

Row | Structure (SMILES) | Time (hand laborer with hand hoe to remove weeds and lettuce plants missed during thinning) | Plant Count (number of live plants per acre after thinning) | Plant Spacing (average of the measured distance to each live plant after thinning) | machine performance as compared to hand thinning
1 | CC(=O)O [Acetic Acid (20%), Acetic Acid] | 3.0cd hr/acre | 30,181b per/acre | 8.9b inch | 
2 | O=S(=O)(O)O [Sulfuric Acid (10%), Sulfuric Acid] | 2.7d hr/acre | 26,758b per/acre | 10.2a inch | no difference
3 | C[n+]1ccc(-c2cc[n+](C)cc2)cc1 [Paraquat, reference compound] | 2.8d hr/acre | 27,692b per/acre | 9.6ab inch | no difference

Reference: patent US20140180549A1, “AUTOMATED MACHINE FOR SELECTIVE IN SITU MANIPULATION OF PLANTS” (The Arizona Board of Regents on Behalf of the University of …, priority 2011, published 2014)
